Results from ChEMBL document CHEMBL5729501, “Isoindolines as HDAC inhibitors” (2022).

Molecular target: T1, Histone deacetylase 11 (Homo sapiens, UniProt Q96DB2)
T1 sequence (Q96DB2 whole entry): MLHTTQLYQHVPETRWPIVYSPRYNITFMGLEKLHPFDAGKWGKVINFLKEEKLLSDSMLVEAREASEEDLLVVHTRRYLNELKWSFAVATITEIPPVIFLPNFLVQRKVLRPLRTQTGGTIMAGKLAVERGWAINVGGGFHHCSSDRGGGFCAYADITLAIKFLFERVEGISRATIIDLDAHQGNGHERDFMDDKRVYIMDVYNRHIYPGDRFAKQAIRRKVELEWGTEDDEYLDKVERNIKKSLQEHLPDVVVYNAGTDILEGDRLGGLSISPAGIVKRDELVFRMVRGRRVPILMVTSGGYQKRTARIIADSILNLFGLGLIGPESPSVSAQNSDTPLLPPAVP
Assay: In Vitro Histone Deacetylase Assay II: The measurement of HD AC 11 deacetylase activity was performed using an electrophoretic mobility shift assay by Nanosyn (Santa Clara, Calif.). Full length human recombinant HD AC 11 protein was expressed in baculoviral system and purified by affinity chromatography. The enzymatic reactions were assembled in 384 well plates in a total volume of 25 μL in a reaction buffer composing: 100 mM HEPES, pH 7.5, 25 mM KCl, 0.1% bovine serum albumin, 0.01% Triton X-100, 1% DMSO (from compounds), 2 μM of the fluorescently labeled peptide substrate and enzyme. The enzyme was added at a final concentration of 10 nM. The peptide substrate FAM-RHKK(tri-fluor-Ac)—NH2 was used. The compounds were tested at 12 concentrations spaced by 3× dilution intervals. Negative control samples (0%-inhibition in the absence of inhibitor) and positive control samples (100%-inhibition) were assembled in replicates of four in each assay plate. The reactions were incubated at 25° C. and quenched by the addition of 45 μL of termination buffer (100 mM HEPES, pH 7.5, 0.01% Triton X-100, 0.05% SDS).The terminated assay plates were analyzed on LabChip® 3000 microfluidic electrophoresis instrument (Perkin Elmer/Caliper Life Sciences). The fluorescence intensity of the electrophoretically separated de-acetylated product and substrate peptide was measured. […]

## O=C(NO)c1cccc2c1CN(c1nc3ccccc3[nH]1)C2
  IC50: < 500 nM
